Test results reported in patent US6114310A, “Efflux pump inhibitors” (priority 1998, dated 2000).

System: Pseudomonas aeruginosa PAM1001
Assay: microbe, parasite or virus in culture
Assay type: cell-based
Experimental: The activity of efflux pump inhibitors (EPI) in combination with fluoroquinolones, such as levofloxacin, is assessed by the checkerboard assay (Antimicrobial Combinations. In Antibiotics in Laboratory Medicine, Ed. Victor Lorian, M. D., Fourth edition, 1996, pp 333-338) using broth microdilution method performed as recommended by the NCCLS (National Committee for Clinical Laboratory Standards (NCCLS). 1997. Methods for Dilution of Antimicrobial Susceptibility Tests for Bacteria That Grow Aerobically--Fourth Edition; Approved Standard. NCCLS Document M7-A4, Vol 17 No.2). The test organism used is Pseudomonas aeruginosa PAM1001.
In this assay, multiple dilutions of two drugs, namely the EPI and levofloxacin, are being tested, alone and in combination, at concentrations equal to, above and below their respective minimal inhibitory concentrations (MICs).
Stock solutions are further diluted, according to the needs of a particular assay, in Mueller Hinton Broth (MHB). Stock solution can be stored at -80° C. Quinolones are solubilized according to the instructions of the manufacturers, at a concentration of 1 mg/ml. They are then further diluted in MHB. Stock solution can be stored at -80° C.
The checkerboard assay is performed in microtiter plates. Levofloxacin is diluted in the x axis, each column containing a single concentration of levofloxacin. The EPI is diluted in the y axis, each row containing an equal concentration of EPI. The result of these manipulations is that each well of the microtiter plate contains a unique combination of concentrations of the two agents. Each EPI are tested independently.
The assay is performed in MHB with a final bacterial inoculum of 5×10^5 CFU/ml (from an early-log phase culture). Microtiter plates are incubated during 20 h at 35° C. and are read using a microtiterplate reader (Molecular Devices) at 650 nm as well as visual observation using a microtiterplate reading mirror.

[1] = Table 1, EPI Conc. μg/ml (number not given; column between 10 and 40 μg/ml)
[2] = Table 2, EPI Conc. μg/ml (number not given; column between 10 and 40 μg/ml)
[3] = Table 3, EPI Conc. μg/ml (number not given; column between 10 and 40 μg/ml)
[4] = Table 4, EPI Conc. μg/ml (number not given; column between 10 and 40 μg/ml)

| Molecule | Levofloxacin MIC Against P. aeruginosa PAM1001 in Presence of Efflux Pump Inhibitor (EPI), Minimum Inhibitory Concentration (Table 1, EPI Conc. 0 μg/ml) | Levofloxacin MIC Against P. aeruginosa PAM1001 in Presence of Efflux Pump Inhibitor (EPI), Minimum Inhibitory Concentration (Table 1, EPI Conc. 0.625 μg/ml) | Levofloxacin MIC Against P. aeruginosa PAM1001 in Presence of Efflux Pump Inhibitor (EPI), Minimum Inhibitory Concentration (Table 1, EPI Conc. 5 μg/ml) | Levofloxacin MIC Against P. aeruginosa PAM1001 in Presence of Efflux Pump Inhibitor (EPI), Minimum Inhibitory Concentration (Table 1, EPI Conc. 10 μg/ml) | Levofloxacin MIC Against P. aeruginosa PAM1001 in Presence of Efflux Pump Inhibitor (EPI), Minimum Inhibitory Concentration (Table 1, EPI Conc. 40 μg/ml) | Levofloxacin MIC Against P. aeruginosa PAM1001 in Presence of Efflux Pump Inhibitor (EPI), Minimum Inhibitory Concentration [1] | Levofloxacin MIC Against P. aeruginosa PAM1001 in Presence of Efflux Pump Inhibitor (EPI), Minimum Inhibitory Concentration (Table 2, EPI Conc. 0 μg/ml) | Levofloxacin MIC Against P. aeruginosa PAM1001 in Presence of Efflux Pump Inhibitor (EPI), Minimum Inhibitory Concentration (Table 2, EPI Conc. 0.625 μg/ml) | Levofloxacin MIC Against P. aeruginosa PAM1001 in Presence of Efflux Pump Inhibitor (EPI), Minimum Inhibitory Concentration (Table 2, EPI Conc. 5 μg/ml) | Levofloxacin MIC Against P. aeruginosa PAM1001 in Presence of Efflux Pump Inhibitor (EPI), Minimum Inhibitory Concentration (Table 2, EPI Conc. 10 μg/ml) | Levofloxacin MIC Against P. aeruginosa PAM1001 in Presence of Efflux Pump Inhibitor (EPI), Minimum Inhibitory Concentration (Table 2, EPI Conc. 40 μg/ml) | Levofloxacin MIC Against P. aeruginosa PAM1001 in Presence of Efflux Pump Inhibitor (EPI), Minimum Inhibitory Concentration (Table 2, EPI Conc. […]) | Levofloxacin MIC Against P. aeruginosa PAM1001 in Presence of Efflux Pump Inhibitor (EPI), Minimum Inhibitory Concentration [2] | Levofloxacin MIC Against P. aeruginosa PAM1001 in Presence of Efflux Pump Inhibitor (EPI), Minimum Inhibitory Concentration (Table 3, EPI Conc. 0 μg/ml) | Levofloxacin MIC Against P. aeruginosa PAM1001 in Presence of Efflux Pump Inhibitor (EPI), Minimum Inhibitory Concentration (Table 3, EPI Conc. 0.625 μg/ml) | Levofloxacin MIC Against P. aeruginosa PAM1001 in Presence of Efflux Pump Inhibitor (EPI), Minimum Inhibitory Concentration (Table 3, EPI Conc. 5 μg/ml) | Levofloxacin MIC Against P. aeruginosa PAM1001 in Presence of Efflux Pump Inhibitor (EPI), Minimum Inhibitory Concentration (Table 3, EPI Conc. 10 μg/ml) | Levofloxacin MIC Against P. aeruginosa PAM1001 in Presence of Efflux Pump Inhibitor (EPI), Minimum Inhibitory Concentration [3] | Levofloxacin MIC Against P. aeruginosa PAM1001 in Presence of Efflux Pump Inhibitor (EPI), Minimum Inhibitory Concentration (Table 4, EPI Conc. 0 μg/ml) | Levofloxacin MIC Against P. aeruginosa PAM1001 in Presence of Efflux Pump Inhibitor (EPI), Minimum Inhibitory Concentration (Table 4, EPI Conc. 0.625 μg/ml) | also measured |
| --- | --- | --- | --- | --- | --- | --- | --- | --- | --- | --- | --- | --- | --- | --- | --- | --- | --- | --- | --- | --- | --- |
| 4-(O-Methylcarboxyamido)phenylalanyl-Nα -methylornithine 2-naphthylamide [Compound 32 (Table 1)] | 4 µg/mL | 4 µg/mL | 0.50 µg/mL | 0.125 µg/mL | 0.06 µg/mL | 0.06 µg/mL | 4 µg/mL | 4 µg/mL | 2 µg/mL | 0.50 µg/mL | 0.03 µg/mL | 4 µg/mL | 0.25 µg/mL |  |  |  |  |  |  |  |  |
| NCCCC(N)C(=O)N(CCCc1ccccc1)CCC(=O)Nc1ccc2ccccc2c1 (stereo not drawn) [Compound 21 (Table 3), Omithyl-β-(N-phenylpropyl)alanine 2-naphthylamide] | 4 µg/mL | 4 µg/mL | 1 µg/mL | 1 µg/mL | 0.25 µg/mL | 0.50 µg/mL | 4 µg/mL | 4 µg/mL | 2 µg/mL |  | 0.03 µg/mL | 4 µg/mL | 0.03 µg/mL | 4 µg/mL | 4 µg/mL | 0.03 µg/mL | 0.03 µg/mL | 0.06 µg/mL | 4 µg/mL | 4 µg/mL | Levofloxacin MIC Against P. aeruginosa PAM1001 in Presence of Efflux Pump Inhibitor (EPI), Minimum Inhibitory Concentration (Table 3, EPI Conc. […]): 2 µg/mL; Levofloxacin MIC Against P. aeruginosa PAM1001 in Presence of Efflux Pump Inhibitor (EPI), Minimum Inhibitory Concentration (Table 4, EPI Conc. 5 μg/ml): 0.50 µg/mL; Levofloxacin MIC Against P. aeruginosa PAM1001 in Presence of Efflux Pump Inhibitor (EPI), Minimum Inhibitory Concentration (Table 4, EPI Conc. 40 μg/ml): 0.015 µg/mL; Levofloxacin MIC Against P. aeruginosa PAM1001 in Presence of Efflux Pump Inhibitor (EPI), Minimum Inhibitory Concentration (Table 4, EPI Conc. […]): 4 µg/mL; Levofloxacin MIC Against P. aeruginosa PAM1001 in Presence of Efflux Pump Inhibitor (EPI), Minimum Inhibitory Concentration [4]: 0.015 µg/mL |
| C[C@H]1COc2c(N3CCN(C)CC3)c(F)cc3c(=O)c(C(=O)O)cn1c23 [levofloxacin, reference compound] |  |  |  |  |  |  |  |  |  |  |  |  |  |  |  |  |  |  |  |  | MIC (Pseudomonas aeruginosa, PAM1001, read-out: MIC of levofloxacin against P. aeruginosa PAM1001): 4 µg/mL |
| D-Lysyl-β-N-(3,3-Dimethylbutyl)alanine 2-Naphthylamide Trifluoroacetate [Example 30] | 4 µg/mL | 4 µg/mL | 4 µg/mL | 2 µg/mL | 0.03 µg/mL | 0.50 µg/mL | 4 µg/mL | 4 µg/mL | 0.25 µg/mL | 0.03 µg/mL | 0.03 µg/mL |  | 0.03 µg/mL | 4 µg/mL | 4 µg/mL | 0.25 µg/mL | 0.015 µg/mL | 0.015 µg/mL | 4 µg/mL | 4 µg/mL | Levofloxacin MIC Against P. aeruginosa PAM1001 in Presence of Efflux Pump Inhibitor (EPI), Minimum Inhibitory Concentration (Table 1, EPI Conc. […]): 4 µg/mL; Levofloxacin MIC Against P. aeruginosa PAM1001 in Presence of Efflux Pump Inhibitor (EPI), Minimum Inhibitory Concentration (Table 3, EPI Conc. 40 μg/ml): 0.015 µg/mL; Levofloxacin MIC Against P. aeruginosa PAM1001 in Presence of Efflux Pump Inhibitor (EPI), Minimum Inhibitory Concentration (Table 4, EPI Conc. 5 μg/ml): 0.03 µg/mL; Levofloxacin MIC Against P. aeruginosa PAM1001 in Presence of Efflux Pump Inhibitor (EPI), Minimum Inhibitory Concentration (Table 4, EPI Conc. 10 μg/ml): 0.03 µg/mL; Levofloxacin MIC Against P. aeruginosa PAM1001 in Presence of Efflux Pump Inhibitor (EPI), Minimum Inhibitory Concentration (Table 4, EPI Conc. 40 μg/ml): 0.015 µg/mL; Levofloxacin MIC Against P. aeruginosa PAM1001 in Presence of Efflux Pump Inhibitor (EPI), Minimum Inhibitory Concentration [4]: 0.03 µg/mL |
